Where only a bound is given, the exact number is not on record here.

The test addresses T1, glutaminase (GAC) (Homo sapiens, UniProt O94925).
T1 sequence (O94925 55-598 isoform O94925-3 limits assumed): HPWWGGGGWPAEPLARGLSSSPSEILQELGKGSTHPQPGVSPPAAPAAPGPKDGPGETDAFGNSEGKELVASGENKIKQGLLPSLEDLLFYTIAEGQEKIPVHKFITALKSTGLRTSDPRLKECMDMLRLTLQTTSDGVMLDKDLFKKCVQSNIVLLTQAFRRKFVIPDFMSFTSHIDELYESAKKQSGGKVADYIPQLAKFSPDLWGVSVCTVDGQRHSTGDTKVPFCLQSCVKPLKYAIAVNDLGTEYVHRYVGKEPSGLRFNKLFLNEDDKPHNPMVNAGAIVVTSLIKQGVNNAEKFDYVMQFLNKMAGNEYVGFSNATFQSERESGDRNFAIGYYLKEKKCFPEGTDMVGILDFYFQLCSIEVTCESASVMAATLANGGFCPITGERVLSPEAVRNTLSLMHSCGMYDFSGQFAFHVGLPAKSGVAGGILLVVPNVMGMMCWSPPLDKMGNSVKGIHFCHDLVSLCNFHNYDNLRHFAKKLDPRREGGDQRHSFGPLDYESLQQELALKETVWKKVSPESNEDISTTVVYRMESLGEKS
In words: Glutaminase (GAC) coupled endpoint enzymatic assay (glutamate dehydrogenase/diaphorase/resazurin, Ex544/Em590). The following applies: inhibition of glutaminase, tested in an assay of Example A or Example B; class symbols A-E. The format is biochemical. The text has this: In certain embodiments, exemplary compounds of Formula I include the compounds described in Table 1 and in the Examples. A compound described herein may be tested for its ability to inhibit glutaminase, e.g., by an assay as described in the Examples. For simplicity, the inhibition activity of these compounds is represented as an IC50 tested in an assay of Example A or Example B in Table 1. […] “N/A” refers to compounds wherein the IC50 is unavailable.
In this example, the enzymatic activity of glutaminase is measured through a coupled endpoint assay. Glutamine and phosphate are supplied to GAC at a concentration equal to Km and AC50, respectively, and GAC concentration is adjusted to give a linear reaction for 60 minutes. The glutamate produced is converted to 2-OG by a kinetic excess of glutamate dehydrogenase. This second step is configured for 2× Km for NAD, since excess NAD is inhibitory. However, a kinetic excess of the third coupling enzyme, diaphorase, recycles NAD from NADH to keep the NAD concentration constant during the timecourse of the assay. Diaphorase, also supplied in kinetic excess, oxidizes NADH produced by GDH back to NAD with the concomitant reduction of rezasurin to the highly fluorescent resorufin. Resorufin in measured after the assay is stopped with SDS by Ex544/Em590. A reduction in the signal indicates inhibition of some component of the coupled enzyme system. Prospective hits are counterscreened against GDH/diaphorase alone to remove hits to the coupling enzyme system in a second assay.
2. Buffers 2× Buffer (300 mM NaCl, 100 mM HEPES pH 8.5, 0.1% BSA, 0.5 mM EDTA, 100 mM sodium phosphate pH 8.5) 5× Substrate Mix (1× Buffer final concentration, with 13 mM glutamine, 100 μM resazurin, 50 μg/ml diaphorase) 1.2× Enzyme Mix (1× Buffer final concentration, with 0.875 μg/ml GAC, 1.56 mM NAD, 6.25 units/ml GDH) Stop Mix (6% SDS in ddH2O) Reaction Procedure 1. Add 1 μl compound in 100% DMSO 2. Add 40 μl of Enzyme Mix and incubate for 60 minute at room temperature 3. Add 10 μl of Substrate Mix to start reaction 4. Stop reaction with 25 μl of 6% SDS and read Ex544 Em 590
For the molecule `O=C(Nc1nnc([C@H]2CCC[C@H](c3nnc(NC(=O)C4CCCC4)s3)C2)s1)C1CCCC1` [Compound 62, N,N′-(5,5′-((1S,3S)-cyclohexane-1,3-diyl)bis(1,3,4-thiadiazole-5,2-diyl))dicyclopentanecarboxamide], the IC50 (in general, the concentration needed to halve the response being measured) lay within 1000 to 2000 nM.

Take `CC(=O)N(C)c1cccc(CC(=O)Nc2nnc([C@H]3CCC[C@H](c4nnc(NC(=O)Cc5cccc(N(C)C(C)=O)n5)s4)C3)s2)n1` [Compound 385, N,N′-(5,5′-((1S,3S)-cyclohexane-1,3-diyl)bis(1,3,4-thiadiazole-5,2-diyl))bis(2-(6-(N-methylacetamido)pyridin-2-yl)acetamide)]: the IC50 was < 100 nM.

For the molecule `O=C(Cc1cccc(N2CC(F)(F)C2)n1)Nc1nnc([C@H]2CCC[C@H](c3nnc(NC(=O)CC4CC4)s3)C2)s1` [Compound 349, 2-cyclopropyl-N-(5-((1S,3S)-3-(5-(2-(6-(3,3-difluoroazetidin-1-yl)pyridin-2-yl)acetamido)-1,3,4-thiadiazol-2-yl)cyclohexyl)-1,3,4-thiadiazol-2-yl)acetamide], the IC50 was < 100 nM.

In the case of `O=C(Cc1ccccn1)Nc1nnc([C@H]2CC[C@H](c3nnc(NC(=O)Cc4ccccn4)s3)C2)s1` [Compound 309], the IC50 was < 100 nM.

Take `O=C(Cc1cccc(OC(F)(F)F)c1)Nc1nnc([C@H]2CCC[C@H](c3nnc(NC(=O)C(CO)c4ccccc4)s3)C2)s1` (stereo partly drawn) [Compound 381]: the half-maximal inhibitory concentration (IC50) was < 100 nM.

For `O=C(Nc1nnc([C@H]2CCC[C@H](c3nnc(NC(=O)c4ccccc4)s3)C2)s1)c1ccccc1` [Compound 39, N,N′-(5,5′-((1S,3S)-cyclohexane-1,3-diyl)bis(1,3,4-thiadiazole-5,2-diyl))dibenzamide], the IC50 lay in the range of 1000 to 2000 nM.

Take `O=C(Cc1ccccc1F)Nc1nnc([C@H]2CCC[C@H](c3nnc(NC(=O)Cc4ccccc4F)s3)C2)s1` [Compound 87, N,N′-(5,5′-((1S,3S)-cyclohexane-1,3-diyl)bis(1,3,4-thiadiazole-5,2-diyl))bis(2-(2-fluorophenyl)acetamide)]: the IC50 is < 100 nM.

On to `O=C(Cc1cccc(OC(F)(F)F)c1)Nc1nnc([C@H]2CCC[C@H](c3nnc(NC(=O)Cc4cccc(N5CC(F)(F)C5)n4)s3)C2)s1` [Compound 388, 2-(6-(3,3-difluoroazetidin-1-yl)pyridin-2-yl)-N-(5-((1S,3S)-3-(5-(2-(3-(trifluoromethoxy)phenyl)acetamido)-1,3,4-thiadiazol-2-yl)cyclohexyl)-1,3,4-thiadiazol-2-yl)acetamide], for which the IC50 is < 100 nM.

`COc1cc(CC(=O)Nc2nnc([C@H]3CCC[C@H](c4nnc(NC(=O)Cc5ccc(F)c(OC)c5)s4)C3)s2)ccc1F` [Compound 78, N,N′-(5,5′-((1S,3S)-cyclohexane-1,3-diyl)bis(1,3,4-thiadiazole-5,2-diyl))bis(2-(4-fluoro-3-methoxyphenyl)acetamide)]: the IC50 was 100 to 500 nM.

Turning to `COc1ccc(CC(=O)Nc2nnc([C@H]3CC[C@H](c4nnc(NC(=O)Cc5ccc(OC)cn5)s4)C3)s2)nc1` [Compound 347, N,N′-(5,5′-((1S,3S)-cyclopentane-1,3-diyl)bis(1,3,4-thiadiazole-5,2-diyl))bis(2-(5-methoxypyridin-2-yl)acetamide)], the IC50 is < 100 nM.

Molecule `O=C(Cc1ccccc1OC(F)(F)F)Nc1nnc([C@H]2CCC[C@H](c3nnc(NC(=O)Cc4ccccc4OC(F)(F)F)s3)C2)s1` [Compound 75, N,N′-(5,5′-((1S,3S)-cyclohexane-1,3-diyl)bis(1,3,4-thiadiazole-5,2-diyl))bis(2-(2-(trifluoromethoxy)phenyl)acetamide)] returned an IC50 of 100 to 500 nM.

For `Cc1ccccc1CC(=O)Nc1nnc([C@H]2CCC[C@H](c3nnc(NC(=O)Cc4ccccc4C)s3)C2)s1` [Compound 83, N,N′-(5,5′-((1S,3S)-cyclohexane-1,3-diyl)bis(1,3,4-thiadiazole-5,2-diyl))bis(2-o-tolylacetamide)], the IC50 is 100 to 500 nM.

Molecule `O=C(CCC(F)(F)F)Nc1nnc([C@H]2CCC[C@H](c3nnc(NC(=O)CCC(F)(F)F)s3)C2)s1` [Compound 47, N,N′-(5,5′-((1S,3S)-cyclohexane-1,3-diyl)bis(1,3,4-thiadiazole-5,2-diyl))bis(4,4,4-trifluorobutanamide)] yielded an IC50 of 1000 to 2000 nM.

For the molecule `N#Cc1ccc(CC(=O)Nc2nnc([C@H]3CCC[C@H](c4nnc(NC(=O)Cc5ccc(C#N)cc5)s4)C3)s2)cc1` [Compound 74, N,N′-(5,5′-((1S,3S)-cyclohexane-1,3-diyl)bis(1,3,4-thiadiazole-5,2-diyl))bis(2-(4-cyanophenyl)acetamide)], the IC50 is 100 to 500 nM.

With `CN(C)c1cccnc1CC(=O)Nc1nnc([C@H]2CCC[C@H](c3nnc(NC(=O)Cc4ncccc4N(C)C)s3)C2)s1` (relative stereo) [Compound 115, N,N′-(5,5′-(trans-cyclohexane-1,3-diyl)bis(1,3,4-thiadiazole-5,2-diyl))bis(2-(3-(dimethylamino)pyridin-2-yl)acetamide)], the IC50 lay in the range of 500 to 1000 nM.

As to `O=C(Nc1nnc([C@H]2CCC[C@H](c3nnc(NC(=O)C(CO)c4ccccc4)s3)C2)s1)C(CO)c1ccccc1` (stereo partly drawn) [Compound 380, N,N′-(5,5′-((1S,3S)-cyclohexane-1,3-diyl)bis(1,3,4-thiadiazole-5,2-diyl))bis(3-hydroxy-2-phenylpropanamide)], the IC50 is < 100 nM.

On to `CN(C)c1ccc(CC(=O)Nc2nnc([C@H]3CCC[C@H](c4nnc(NC(=O)Cc5ccc(N(C)C)cc5)s4)C3)s2)cc1` [Compound 31, N,N′-(5,5′-((1S,3S)-cyclohexane-1,3-diyl)bis(1,3,4-thiadiazole-5,2-diyl))bis(2-(4-(dimethylamino)phenyl)acetamide)], for which the IC50 was < 100 nM.

Regarding `CC(C)Oc1ccccc1CC(=O)Nc1nnc([C@H]2CCC[C@H](c3nnc(NC(=O)Cc4ccccc4OC(C)C)s3)C2)s1` [Compound 92, N,N′-(5,5′-((1S,3S)-cyclohexane-1,3-diyl)bis(1,3,4-thiadiazole-5,2-diyl))bis(2-(2-isopropoxyphenyl)acetamide)], the half-inhibitory concentration (IC50) is 100 to 500 nM.

`N#Cc1cccc(CC(=O)Nc2nnc([C@H]3CCC[C@H](c4nnc(NC(=O)Cc5cccc(CN)c5)s4)C3)s2)c1` [Compound 361]: the IC50 was < 100 nM.

Take `CS(=O)(=O)c1ccc(CC(=O)Nc2nnc([C@H]3CCC[C@H](c4nnc(NC(=O)Cc5ccc(S(C)(=O)=O)cc5)s4)C3)s2)cc1` [Compound 66, N,N′-(5,5′-((1S,3S)-cyclohexane-1,3-diyl)bis(1,3,4-thiadiazole-5,2-diyl))bis(2-(4-(methylsulfonyl)phenyl)acetamide)]: the IC50 is < 100 nM.

With `CC(=O)Nc1nnc([C@H]2CCC[C@H](c3nnc(NC(C)=O)s3)C2)s1` (single isomer, unassigned) [Compound 99], the IC50 was 100 to 500 nM.

Consider `Nc1cccc(CC(=O)Nc2nnc([C@H]3CCC[C@H](c4nnc(NC(=O)Cc5cccc(N)c5)s4)C3)s2)c1` [Compound 53, N,N′-(5,5′-((1S,3S)-cyclohexane-1,3-diyl)bis(1,3,4-thiadiazole-5,2-diyl))bis(2-(3-aminophenyl)acetamide)], for which the IC50 was < 100 nM.

`O=C(Cc1ccc(F)cc1)Nc1nnc([C@H]2CCC[C@H](c3nnc(NC(=O)Cc4ccc(F)cc4)s3)C2)s1` [Compound 88, N,N′-(5,5′-((1S,3S)-cyclohexane-1,3-diyl)bis(1,3,4-thiadiazole-5,2-diyl))bis(2-(4-fluorophenyl)acetamide)] came in with an IC50 of 100 to 500 nM.

Take `O=C(CC1CCCO1)Nc1nnc([C@H]2CCC[C@H](c3nnc(NC(=O)CC4CCCO4)s3)C2)s1` (stereo partly drawn) [Compound 77, N,N′-(5,5′-((1S,3S)-cyclohexane-1,3-diyl)bis(1,3,4-thiadiazole-5,2-diyl))bis(2-(tetrahydrofuran-2-yl)acetamide)]: the half-maximal inhibitory concentration (IC50) was in the range of 1000 to 2000 nM.
